Assays:
NB-4 [1] = experiment: Potentiation of ATRA-induced human NB4 cell differentiation at 1 uM after 96 hrs by nitroblue tetrazolium assay (reference value: 29.93 +/- 0.73%); assay type: functional
NB-4 [2] = experiment: Potentiation of ATRA-induced human NB4 cell growth inhibition at 1 uM after 96 hrs by hemocytometry (reference value: 32.42 +/- 3.98%); assay type: functional; settings: NB-4, 96 h, read-out: GI
Cytochrome P450 26A1 = molecular target: T1, Cytochrome P450 26A1 (Homo sapiens, UniProt O43174); experiment: Inhibition of CYP26A1 in human NB4 cells assessed as ATRA level in medium at 5 uM after 12 hrs by LC-MS/MS analysis (reference value: 27.05 +/- 1.34 ng/ml); assay type: cell-based; settings: nb-4, 12 h
T1 sequence (O43174 whole entry): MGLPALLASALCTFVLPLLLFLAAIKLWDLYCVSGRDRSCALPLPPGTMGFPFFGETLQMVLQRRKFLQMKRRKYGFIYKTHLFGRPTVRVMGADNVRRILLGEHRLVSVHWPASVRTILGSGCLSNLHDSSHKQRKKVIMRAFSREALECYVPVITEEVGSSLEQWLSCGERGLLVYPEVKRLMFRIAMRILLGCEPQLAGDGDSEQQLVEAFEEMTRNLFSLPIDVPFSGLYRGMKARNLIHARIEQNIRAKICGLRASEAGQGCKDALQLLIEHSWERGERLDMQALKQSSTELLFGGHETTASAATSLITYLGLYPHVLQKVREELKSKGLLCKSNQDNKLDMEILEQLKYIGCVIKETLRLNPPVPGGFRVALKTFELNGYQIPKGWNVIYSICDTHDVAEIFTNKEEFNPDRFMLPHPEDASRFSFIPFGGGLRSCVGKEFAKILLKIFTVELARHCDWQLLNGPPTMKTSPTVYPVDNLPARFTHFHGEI

NB-4 [3] = experiment: Potentiation of ATRA-induced human NB4 cell differentiation at 0.5 uM after 96 hrs by nitroblue tetrazolium assay (reference value: 29.93 +/- 0.73%); assay type: functional
NB-4 [4] = experiment: Cytotoxicity against human NB4 cells assessed as growth inhibition at 1 uM after 96 hrs by hemocytometry relative to control; assay type: functional; settings: NB-4, 96 h, read-out: GI
NB-4 [5] = experiment: Potentiation of ATRA-induced human NB4 cell growth inhibition at 0.5 uM after 96 hrs by hemocytometry (reference value: 32.42 +/- 3.98%); assay type: functional; settings: NB-4, 96 h, read-out: GI
NB-4 [6] = experiment: Cytotoxicity against human NB4 cells assessed as growth inhibition at 0.5 uM after 96 hrs by hemocytometry relative to control; assay type: functional; settings: NB-4, 96 h, read-out: GI
NB-4 [7] = experiment: Potentiation of ATRA-induced human NB4 cell differentiation at 10 uM after 96 hrs by nitroblue tetrazolium assay (reference value: 29.44 +/- 2.03%); assay type: functional
NB-4 [8] = experiment: Potentiation of ATRA-induced human NB4 cell differentiation at 5 uM after 96 hrs by nitroblue tetrazolium assay (reference value: 29.44 +/- 2.03%); assay type: functional
NB-4 [9] = experiment: Induction of human NB4 cell differentiation at 0.5 to 10 uM after 96 hrs by nitroblue tetrazolium assay relative to control; assay type: functional
NB-4 [10] = experiment: Potentiation of ATRA-induced human NB4 cell growth inhibition at 10 uM after 96 hrs by hemocytometry (reference value: 32.70 +/- 2.25%); assay type: functional; settings: NB-4, 96 h, read-out: GI
NB-4 [11] = experiment: Potentiation of ATRA-induced human NB4 cell growth inhibition at 5 uM after 96 hrs by hemocytometry (reference value: 32.70 +/- 2.25%); assay type: functional; settings: NB-4, 96 h, read-out: GI
NB-4 [12] = experiment: Cytotoxicity against human NB4 cells assessed as growth inhibition at 10 uM after 96 hrs by hemocytometry relative to control; assay type: functional; settings: NB-4, 96 h, read-out: GI
NB-4 [13] = experiment: Cytotoxicity against human NB4 cells assessed as growth inhibition at 5 uM after 96 hrs by hemocytometry relative to control; assay type: functional; settings: NB-4, 96 h, read-out: GI

| SMILES | Activity (NB-4 [1]) | inhibition of growth at 1 µM (NB-4 [2]) | Activity (Cytochrome P450 26A1) | Activity (NB-4 [3]) | inhibition of growth at 1 µM (NB-4 [4]) | inhibition of growth at 0.5 µM (NB-4 [5]) | inhibition of growth at 0.5 µM (NB-4 [6]) | Activity (NB-4 [7]) | Activity (NB-4 [8]) | Activity (NB-4 [9]) | inhibition of growth at 10 µM (NB-4 [10]) | inhibition of growth at 5 µM (NB-4 [11]) | inhibition of growth at 10 µM (NB-4 [12]) | inhibition of growth at 5 µM (NB-4 [13]) |
| --- | --- | --- | --- | --- | --- | --- | --- | --- | --- | --- | --- | --- | --- | --- |
| Cc1oc(C(C)(C)C)cc1C(=O)NC(Cc1ccccc1)C(=O)O (stereo not drawn) | 38% | 47.1% | 33.9 ng/mL | 39.58% | 17.8% | 50.6% | 12.8% | 42.64% | 45.16% | 0% | 47.1% | 40.2% | 8.05% | 7.7% |
| O=C(CCN1C(=O)c2ccccc2C1=O)NCc1ccncc1 | 37.16% | 48.5% | – | 35.05% | 16.5% | 50.8% | 14.2% | 41.21% | 41.55% | 0% | 49.7% | 50.9% | 12.4% | 14.6% |
| Cc1cc(O)nc(SCC(=O)c2ccc(O)c(O)c2)n1 | 32.57% | 51.7% | – | 33.19% | 18.7% | 50.3% | 19.3% | 39.43% | 41.32% | 0% | 53.5% | 53.4% | 12.8% | 12.2% |
| Cc1cccc(-c2nc3cc(/N=C/c4c(C)cc(O)cc4O)ccc3o2)c1 | 27.65% | 48.5% | – | 29.21% | 22.6% | 50.1% | 25.8% | 45.38% | 36.43% | 0% | 79% | 64.3% | 48.5% | 37.1% |
| COc1ccc(/C=C/C(=O)Nc2sc3c(c2C(=O)O)CCC3)cc1 | – | – | – | – | – | – | – | 31.42% | 30.05% | 0% | 34.9% | 31.5% | 1.22% | 0.49% |
| O=C(Nc1ccncc1)c1cc(-c2ccc(Br)cc2)nc2ccccc12 | 35.7% | 48.7% | – | 36.53% | 24.7% | 54.3% | 20.2% | 38.52% | 33.68% | 0% | 59.4% | 63.1% | 52.9% | 37.9% |
| CC1=CC(=O)OC2C=C(OCCOc3ccc(C(C)(C)C)cc3)C=CC12 (stereo not drawn) | 38.42% | 43% | – | 35.72% | 13.6% | 46.1% | 14.4% | 42.39% | 39.97% | 0% | 48.3% | 43.5% | 6.78% | 7.78% |
| Cc1ccc(OCc2nc(-c3cccnc3)no2)c(Br)c1 | – | – | – | – | – | – | – | 28.85% | 25.37% | 0% | 42.9% | 39.8% | 23.5% | 18.2% |
| O=C(CCN1C(=O)c2ccccc2C1=O)Nc1cc(Cl)ccc1C(=O)O | 36.18% | 38.6% | – | 35.1% | 19.2% | 47.9% | 13.8% | 36.7% | 39.6% | 0% | 39.1% | 41.3% | 9.31% | 3.68% |
| CCOc1ccc(NS(=O)(=O)c2ccc(Br)cc2)cc1 | – | – | – | – | – | – | – | 30.3% | 26.83% | 0% | 48.4% | 44.1% | 20.8% | 17.1% |
| O=C(O)c1ccc(COc2ccc(/C=C3\SC(=O)N(c4cccc(Cl)c4)C3=O)cc2)cc1 | 35.4% | 53.7% | – | 31.47% | 18% | 44.1% | 18.6% | 41.85% | 38.42% | 0% | 41.1% | 43.8% | 9.07% | 11% |
| CC(=O)Nc1ccc(C(=O)Nc2ccc(OCC(=O)O)cc2)cc1 | 34.74% | 45.1% | – | 37.62% | 8.83% | 45% | 7.8% | 38.97% | 38.29% | 0% | 48.8% | 45.8% | 14.2% | 17.9% |
| Clc1cccc(C(c2ccc3[nH]cnc3c2)n2ccnc2)c1 (stereo not drawn) [LIAROZOLE] | 38.22% | 46% | 39.78 ng/mL | 42.86% | 23.1% | 49.6% | 14.5% | 34.9% | 33.53% | 0% | 56.3% | 55.3% | 40.9% | 32.7% |

From ChEMBL document CHEMBL2412979, “2-(2-Methylfuran-3-carboxamido)-3-phenylpropanoic acid, a potential CYP26A1 inhibitor to enhance all-trans retinoic acid-induced leukemia cell differentiation based on virtual screening and biological evaluation” (Bioorg Med Chem, 2013)
